Measured values as given in patent publication US5140014A (Abbott Laboratories, priority 1989, dated 1992).
≈ marks a conversion by molar mass, not a printed value. Like-named read-outs stand apart in the source and are kept apart here.

Experiments:
Assay in all cases: in vitro antibacterial activity, agar dilution method (MIC)
Type in all cases: cell-based
Acinetobacter Sp = details: strain CMX 669, BHI agar, 20-24 hours
In short: (§1)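 Agar dilution in BHI agar, usually 12 two-fold dilutions from a 2,000 ug/mL stock. About 10^4 organisms from overnight BHI broth cultures (diluted 1:100) were spotted and incubated at 35-37 °C for 20-24 h. MIC was the lowest concentration giving no growth, slight haze or sparse colonies versus growth control.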

Enterobacter Aerogenes = details: BHI agar, 20-24 hours
In short: as §1

Enterococcus Faecium = details: BHI agar, 20-24 hours
In short: as §1

Haemophilus Influenzae = details: BHI agar, 20-24 hours
In short: as §1

Klebsiella Pneumoniae = details: BHI agar, 20-24 hours
In short: as §1

Micrococcus Luteus = details: BHI agar, 20-24 hours
In short: (§2)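 Agar dilution in Brain Heart Infusion agar, usually 12 two-fold dilutions from a 2,000 ug/mL stock. Overnight BHI broth cultures were diluted 1:100 (1:10 for slow growers such as Streptococcus), and ~10^4 organisms were spotted per plate. MIC read after 20-24 h at 35°-37° C as lowest concentration giving no growth, slight haze or sparse colonies versus growth control.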

Providencia Stuartii = details: Providencia stuartii; strain CMX 640; BHI agar, 20-24 hours; read-out: MIC
In short: as §1

Pseudomonas Aeruginosa = details: BHI agar, 20-24 hours
In short: as §1

Staphylococcus Aureus = details: BHI agar, 20-24 hours
In short: as §1

[1] = tested on: Staphylococcus Epidermidis; details: strain 3519, BHI agar, 20-24 hours
In short: as §1

Streptococcus Agalactiae = details: strain CMX 508, BHI agar, 20-24 hours
In short: as §1

Streptococcus Bovis = details: Streptococcus equinus, strain A5169; BHI agar, 20-24 hours; read-out: MIC
In short: as §1

Streptococcus Pyogenes = details: BHI agar, 20-24 hours
In short: as §2

Escherichia Coli = details: BHI agar, 20-24 hours
In short: (§3)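 Agar dilution on BHI agar, typically 12 two-fold dilutions prepared from a 2,000 ug/mL stock solution. Plates were spot-inoculated with about 10^4 organisms from overnight BHI broth cultures, then incubated 20-24 h at 35°-37° C. MIC was the lowest concentration giving no growth, a slight haze or sparse isolated colonies compared with the growth control.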

Pseudomonas Cepacia = details: Burkholderia cepacia; strain 296I; BHI agar, 20-24 hours; read-out: MIC
In short: as §3

[2] = Haemophilus influenzae, ATCC9795, strain ATCC 9795, read-out: MIC
[3] = Haemophilus influenzae, ATCC19418, strain ATCC 19418, read-out: MIC
[4] = Haemophilus influenzae, strain 566A, read-out: MIC
[5] = Haemophilus influenzae, strain 632A, read-out: MIC
[6] = Haemophilus influenzae, strain 747C, read-out: MIC
[7] = Haemophilus influenzae, strain SOL AMP R, read-out: MIC
[8] = Haemophilus influenzae, strain SPK AMP R, read-out: MIC
[9] = Micrococcus luteus, ATCC9341, strain ATCC 9341, read-out: MIC
[10] = Pseudomonas aeruginosa, strain A5007, read-out: MIC
[11] = Pseudomonas aeruginosa, strain BMH10, read-out: MIC
[12] = Pseudomonas aeruginosa, strain K799/WT, read-out: MIC
[13] = Streptococcus pyogenes, strain 930 CONST, read-out: MIC
[14] = Streptococcus pyogenes, strain EES61, read-out: MIC
[15] = Escherichia coli, strain SS, read-out: MIC

SMILES: CCC1OC(=O)CC(O)C(C)C(OC2OC(C)CC(N(C)C)C2O)C(CC=O)CC(C)C(N(C)C)CCC2(C)OC2C1C (centres unmarked) [Example 2, [9R]-9-Deoxo-10,11-dihydro-9-N,N-dimethylamino-rosaramicin]
- MIC (Acinetobacter Sp): 25 µg/mL (≈ 40.8 µM)
- MIC (Enterobacter Aerogenes; strain ATCC 13048): 100 µg/mL (≈ 163 µM)
- MIC (Enterococcus Faecium; strain ATCC 8043): 12.5 µg/mL (≈ 20.4 µM)
- MIC (Haemophilus Influenzae; [2]): 2 µg/mL (≈ 3.26 µM)
- MIC (Haemophilus Influenzae; [3]): 4 µg/mL (≈ 6.53 µM)
- MIC (Haemophilus Influenzae; Haemophilus influenzae, ATCC43095, strain ATCC 43095, read-out: MIC): 4 µg/mL (≈ 6.53 µM)
- MIC (Haemophilus Influenzae; [4]): 2 µg/mL (≈ 3.26 µM)
- MIC (Haemophilus Influenzae; Haemophilus influenzae, strain 588A, read-out: MIC): 2 µg/mL (≈ 3.26 µM)
- MIC (Haemophilus Influenzae; [5]): 2 µg/mL (≈ 3.26 µM)
- MIC (Haemophilus Influenzae; [6]): 2 µg/mL (≈ 3.26 µM)
- MIC (Haemophilus Influenzae; [7]): 2 µg/mL (≈ 3.26 µM)
- MIC (Haemophilus Influenzae; [8]): 0.5 µg/mL (≈ 0.816 µM)
- MIC (Haemophilus Influenzae; strain 503B): 2 µg/mL (≈ 3.26 µM)
- MIC (Haemophilus Influenzae; strain 504): 2 µg/mL (≈ 3.26 µM)
- MIC (Haemophilus Influenzae; strain 519A): 1 µg/mL (≈ 1.63 µM)
- MIC (Haemophilus Influenzae; strain 667A): 2 µg/mL (≈ 3.26 µM)
- MIC (Haemophilus Influenzae; strain 751): 1 µg/mL (≈ 1.63 µM)
- MIC (Haemophilus Influenzae; strain 1177): 0.25 µg/mL (≈ 0.408 µM)
- MIC (Haemophilus Influenzae; strain 1435): 1 µg/mL (≈ 1.63 µM)
- MIC (Haemophilus Influenzae; strain ATCC 10211): 2 µg/mL (≈ 3.26 µM)
- MIC (Klebsiella Pneumoniae; strain ATCC 8045): 25 µg/mL (≈ 40.8 µM)
- MIC (Micrococcus Luteus; [9]): 3.1 µg/mL (≈ 5.06 µM)
- MIC (Micrococcus Luteus; strain ATCC 4698): 6.2 µg/mL (≈ 10.1 µM)
- MIC (Providencia Stuartii): > 100 µg/mL
- MIC (Pseudomonas Aeruginosa; [10]): > 100 µg/mL
- MIC (Pseudomonas Aeruginosa; [11]): > 100 µg/mL
- MIC (Pseudomonas Aeruginosa; [12]): > 100 µg/mL
- MIC (Pseudomonas Aeruginosa; strain K799/61): 3.1 µg/mL (≈ 5.06 µM)
- MIC (Staphylococcus Aureus; strain 45): 25 µg/mL (≈ 40.8 µM)
- MIC (Staphylococcus Aureus; strain 45 RAR2): 25 µg/mL (≈ 40.8 µM)
- MIC (Staphylococcus Aureus; strain 642A): 50 µg/mL (≈ 81.6 µM)
- MIC (Staphylococcus Aureus; strain A5177): 25 µg/mL (≈ 40.8 µM)
- MIC (Staphylococcus Aureus; strain ATCC 6538P): 25 µg/mL (≈ 40.8 µM)
- MIC (Staphylococcus Aureus; strain CMX 553): 25 µg/mL (≈ 40.8 µM)
- MIC (Staphylococcus Aureus; strain NCTC 10649): 25 µg/mL (≈ 40.8 µM)
- MIC [1]: 25 µg/mL (≈ 40.8 µM)
- MIC (Streptococcus Agalactiae): 3.1 µg/mL (≈ 5.06 µM)
- MIC (Streptococcus Bovis): 1.56 µg/mL (≈ 2.55 µM)
- MIC (Streptococcus Pyogenes; [13]): > 100 µg/mL
- MIC (Streptococcus Pyogenes; [14]): 3.1 µg/mL (≈ 5.06 µM)
- MIC (Streptococcus Pyogenes; strain 2548 INDUC): 6.2 µg/mL (≈ 10.1 µM)
- MIC (Escherichia Coli; [15]): 0.2 µg/mL (≈ 0.326 µM)
- MIC (Escherichia Coli; strain DC-2): 50 µg/mL (≈ 81.6 µM)
- MIC (Escherichia Coli; strain JUHL): 100 µg/mL (≈ 163 µM)
- MIC (Escherichia Coli; strain KNK 437): 50 µg/mL (≈ 81.6 µM)
- MIC (Pseudomonas Cepacia): > 100 µg/mL

SMILES: CCC1OC(=O)CC(O)C(C)C(OC2OC(C)C(O)C(N(C)C)C2O)C(CC=O)CC(C)C(N(C)C)CCC(C)=CC1COC(C)=O (centres unmarked) [Example 6, [9R]-23-O-Acetyl-9-deoxo-10,11-dihydro-9-N,N-dimethylamino-5-O-mycaminosyl-tylonide]
- MIC (Acinetobacter Sp; Acinetobacter, read-out: MIC): > 100 µg/mL
- MIC (Enterobacter Aerogenes; Klebsiella aerogenes, ATCC13048, strain ATCC 13048, read-out: MIC): > 100 µg/mL
- MIC (Enterococcus Faecium; Enterococcus faecium, ATCC8043, strain ATCC 8043, read-out: MIC): 1.56 µg/mL (≈ 2.33 µM)
- MIC (Haemophilus Influenzae; [2]): 4 µg/mL (≈ 5.96 µM)
- MIC (Haemophilus Influenzae; Haemophilus influenzae, ATCC10211, strain ATCC 10211, read-out: MIC): 4 µg/mL (≈ 5.96 µM)
- MIC (Haemophilus Influenzae; [3]): 8 µg/mL (≈ 11.9 µM)
- MIC (Haemophilus Influenzae; Haemophilus influenzae, strain 504, read-out: MIC): 2 µg/mL (≈ 2.98 µM)
- MIC (Haemophilus Influenzae; Haemophilus influenzae, strain 519A, read-out: MIC): 2 µg/mL (≈ 2.98 µM)
- MIC (Haemophilus Influenzae; [4]): 8 µg/mL (≈ 11.9 µM)
- MIC (Haemophilus Influenzae; [5]): 8 µg/mL (≈ 11.9 µM)
- MIC (Haemophilus Influenzae; [6]): 8 µg/mL (≈ 11.9 µM)
- MIC (Haemophilus Influenzae; Haemophilus influenzae, strain 751, read-out: MIC): > 16 µg/mL
- MIC (Haemophilus Influenzae; Haemophilus influenzae, strain 1177, read-out: MIC): 0.25 µg/mL (≈ 0.373 µM)
- MIC (Haemophilus Influenzae; Haemophilus influenzae, strain 1435, read-out: MIC): 4 µg/mL (≈ 5.96 µM)
- MIC (Haemophilus Influenzae; Haemophilus influenzae, strain DILL AMP R, read-out: MIC): 4 µg/mL (≈ 5.96 µM)
- MIC (Haemophilus Influenzae; [7]): 8 µg/mL (≈ 11.9 µM)
- MIC (Haemophilus Influenzae; [8]): 8 µg/mL (≈ 11.9 µM)
- MIC (Haemophilus Influenzae; strain 503B): 8 µg/mL (≈ 11.9 µM)
- MIC (Haemophilus Influenzae; strain ATCC 43095): 8 µg/mL (≈ 11.9 µM)
- MIC (Klebsiella Pneumoniae; Klebsiella pneumoniae, ATCC8045, strain ATCC 8045, read-out: MIC): > 100 µg/mL
- MIC (Micrococcus Luteus; Micrococcus luteus, ATCC4698, strain ATCC 4698, read-out: MIC): 1.56 µg/mL (≈ 2.33 µM)
- MIC (Micrococcus Luteus; [9]): 0.78 µg/mL (≈ 1.16 µM)
- MIC (Providencia Stuartii): > 100 µg/mL
- MIC (Pseudomonas Aeruginosa; [10]): > 100 µg/mL
- MIC (Pseudomonas Aeruginosa; [11]): > 100 µg/mL
- MIC (Pseudomonas Aeruginosa; Pseudomonas aeruginosa, strain K799/61, read-out: MIC): 6.2 µg/mL (≈ 9.24 µM)
- MIC (Pseudomonas Aeruginosa; [12]): > 100 µg/mL
- MIC (Staphylococcus Aureus; Staphylococcus aureus, ATCC6538P, strain ATCC 6538P, read-out: MIC): 3.1 µg/mL (≈ 4.62 µM)
- MIC (Staphylococcus Aureus; Staphylococcus aureus, NCTC10649, strain NCTC 10649, read-out: MIC): 3.1 µg/mL (≈ 4.62 µM)
- MIC (Staphylococcus Aureus; Staphylococcus aureus, strain 45, read-out: MIC): 3.1 µg/mL (≈ 4.62 µM)
- MIC (Staphylococcus Aureus; Staphylococcus aureus, strain 45 RAR2, read-out: MIC): 6.2 µg/mL (≈ 9.24 µM)
- MIC (Staphylococcus Aureus; Staphylococcus aureus, strain 642A, read-out: MIC): 6.2 µg/mL (≈ 9.24 µM)
- MIC (Staphylococcus Aureus; Staphylococcus aureus, strain A5177, read-out: MIC): 3.1 µg/mL (≈ 4.62 µM)
- MIC (Staphylococcus Aureus; Staphylococcus aureus, strain CMX 553, read-out: MIC): 6.2 µg/mL (≈ 9.24 µM)
- MIC ([1]; Staphylococcus epidermidis, read-out: MIC): 3.1 µg/mL (≈ 4.62 µM)
- MIC (Streptococcus Agalactiae; Streptococcus agalactiae, read-out: MIC): 0.39 µg/mL (≈ 0.581 µM)
- MIC (Streptococcus Bovis): 0.1 µg/mL (≈ 0.149 µM)
- MIC (Streptococcus Pyogenes; [13]): > 100 µg/mL
- MIC (Streptococcus Pyogenes; Streptococcus pyogenes, strain 2548 INDUC, read-out: MIC): 3.1 µg/mL (≈ 4.62 µM)
- MIC (Streptococcus Pyogenes; [14]): 0.39 µg/mL (≈ 0.581 µM)
- MIC (Escherichia Coli; Escherichia coli, strain DC-2, read-out: MIC): 100 µg/mL (≈ 149 µM)
- MIC (Escherichia Coli; Escherichia coli, strain JUHL, read-out: MIC): > 100 µg/mL
- MIC (Escherichia Coli; Escherichia coli, strain KNK 437, read-out: MIC): > 100 µg/mL
- MIC (Escherichia Coli; [15]): 1.56 µg/mL (≈ 2.33 µM)
- MIC (Escherichia Coli; strain H560): 50 µg/mL (≈ 74.5 µM)
- MIC (Pseudomonas Cepacia): > 100 µg/mL
